Test [1] has as its target Serine/threonine-protein kinase PLK2 (Homo sapiens, UniProt Q9NYY3). The test is described as follows: Selectivity interaction (Ambit KINOMEscan and KiNATiv profiling in Jurkat cells) EUB0000090b PLK2. The following applies: at 1 µM. The format is cell-based.
In test [2] the target is Receptor-interacting serine/threonine-protein kinase 2 (Homo sapiens, UniProt O43353). Description: Selectivity interaction (Ambit KINOMEscan and KiNATiv profiling in Jurkat cells) EUB0000090b RIPK2. Particulars: at 1 µM. Type of test: cell-based.
Test [3] has as its target AP2-associated protein kinase 1 (Homo sapiens, UniProt Q2M2I8). Description: Selectivity interaction (KinomeScan (DiscoverX)) EUB0001079a AAK1. Particulars: at 1 µM.
The target of test [4] is RAC-gamma serine/threonine-protein kinase (Homo sapiens, UniProt Q9Y243). The test is described as follows: Selectivity interaction (KinomeScan (DiscoverX)) EUB0001079a AKT3. Particulars: at 1 µM.
The target of test [5] is Dual specificity mitogen-activated protein kinase kinase 1 (Homo sapiens, UniProt Q02750). The following applies: at 10 µM.
The target of test [6] is Histone-lysine N-methyltransferase, H3 lysine-79 specific (Homo sapiens, UniProt Q8TEK3). Description: Selectivity interaction (Methyltransferase screen (Scintillation proximity assays)) EUB0000255b DOT1L. (In general: In a scintillation proximity assay essentially only radioactivity close to the scintillant gives light.)
Test [7] concerns the target Mitogen-activated protein kinase kinase kinase 9 (Homo sapiens) (UniProt P80192). Description: Selectivity interaction (KinomeScan (DiscoverX)) EUB0000666a MAP3K9. The following applies: at 10 µM.
For test [8], the target named is Ephrin type-A receptor 5 (Homo sapiens) (UniProt P54756). Description: Selectivity interaction (SelectScreen profiling (Invitrogen)) EUB0000607a EPHA5. Particulars: at 2 µM.
Test [9] deals with T1, Serine/threonine-protein kinase Nek1 (Homo sapiens) (UniProt Q96PY6).
T1 sequence (whole entry): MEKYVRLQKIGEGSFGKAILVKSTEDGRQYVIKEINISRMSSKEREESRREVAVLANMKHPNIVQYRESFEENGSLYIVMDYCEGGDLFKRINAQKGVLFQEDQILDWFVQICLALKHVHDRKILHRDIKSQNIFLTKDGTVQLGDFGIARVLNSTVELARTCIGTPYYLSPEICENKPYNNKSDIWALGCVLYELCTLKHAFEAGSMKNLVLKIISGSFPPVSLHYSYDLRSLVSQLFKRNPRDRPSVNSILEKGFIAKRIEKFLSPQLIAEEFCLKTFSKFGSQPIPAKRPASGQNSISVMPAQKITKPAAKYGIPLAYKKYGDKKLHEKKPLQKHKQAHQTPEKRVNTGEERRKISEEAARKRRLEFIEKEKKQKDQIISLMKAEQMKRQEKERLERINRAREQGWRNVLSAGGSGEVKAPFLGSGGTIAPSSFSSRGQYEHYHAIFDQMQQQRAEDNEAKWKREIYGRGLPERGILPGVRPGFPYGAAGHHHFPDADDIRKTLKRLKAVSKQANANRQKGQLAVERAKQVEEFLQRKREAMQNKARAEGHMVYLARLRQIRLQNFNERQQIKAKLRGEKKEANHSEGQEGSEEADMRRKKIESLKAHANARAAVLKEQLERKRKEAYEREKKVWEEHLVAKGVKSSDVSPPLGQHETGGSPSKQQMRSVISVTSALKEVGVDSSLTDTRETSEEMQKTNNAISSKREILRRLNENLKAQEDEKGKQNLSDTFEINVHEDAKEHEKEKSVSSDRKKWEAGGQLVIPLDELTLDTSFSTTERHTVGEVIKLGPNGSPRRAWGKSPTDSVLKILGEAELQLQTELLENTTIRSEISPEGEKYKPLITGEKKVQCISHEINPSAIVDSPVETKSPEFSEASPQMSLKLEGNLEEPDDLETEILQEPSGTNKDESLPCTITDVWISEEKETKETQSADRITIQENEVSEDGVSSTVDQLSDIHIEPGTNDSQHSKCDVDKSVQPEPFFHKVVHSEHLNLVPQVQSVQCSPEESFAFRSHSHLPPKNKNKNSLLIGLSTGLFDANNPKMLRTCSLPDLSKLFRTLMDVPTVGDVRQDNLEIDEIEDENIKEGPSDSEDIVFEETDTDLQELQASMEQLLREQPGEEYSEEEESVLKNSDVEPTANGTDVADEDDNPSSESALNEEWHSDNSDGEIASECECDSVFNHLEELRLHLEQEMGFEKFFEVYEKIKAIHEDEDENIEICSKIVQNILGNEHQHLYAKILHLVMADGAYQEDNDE
The test is described as follows: Selectivity interaction (KinomeScan (DiscoverX)) EUB0000607a NEK1. The following applies: at 10 µM.

The target in the next test is Focal adhesion kinase 1 (Homo sapiens, UniProt Q05397). The test is described as follows: Selectivity interaction (ActivX KiNativ screen (kinase selectivity in THP-1 cell lysates)) EUB0000639a PTK2. The format is subcellular. The following applies: lysate, at 1 µM.
The target in test [10] is T2, MAP/microtubule affinity-regulating kinase 4 (Homo sapiens) (UniProt Q96L34).
T2 sequence (whole entry): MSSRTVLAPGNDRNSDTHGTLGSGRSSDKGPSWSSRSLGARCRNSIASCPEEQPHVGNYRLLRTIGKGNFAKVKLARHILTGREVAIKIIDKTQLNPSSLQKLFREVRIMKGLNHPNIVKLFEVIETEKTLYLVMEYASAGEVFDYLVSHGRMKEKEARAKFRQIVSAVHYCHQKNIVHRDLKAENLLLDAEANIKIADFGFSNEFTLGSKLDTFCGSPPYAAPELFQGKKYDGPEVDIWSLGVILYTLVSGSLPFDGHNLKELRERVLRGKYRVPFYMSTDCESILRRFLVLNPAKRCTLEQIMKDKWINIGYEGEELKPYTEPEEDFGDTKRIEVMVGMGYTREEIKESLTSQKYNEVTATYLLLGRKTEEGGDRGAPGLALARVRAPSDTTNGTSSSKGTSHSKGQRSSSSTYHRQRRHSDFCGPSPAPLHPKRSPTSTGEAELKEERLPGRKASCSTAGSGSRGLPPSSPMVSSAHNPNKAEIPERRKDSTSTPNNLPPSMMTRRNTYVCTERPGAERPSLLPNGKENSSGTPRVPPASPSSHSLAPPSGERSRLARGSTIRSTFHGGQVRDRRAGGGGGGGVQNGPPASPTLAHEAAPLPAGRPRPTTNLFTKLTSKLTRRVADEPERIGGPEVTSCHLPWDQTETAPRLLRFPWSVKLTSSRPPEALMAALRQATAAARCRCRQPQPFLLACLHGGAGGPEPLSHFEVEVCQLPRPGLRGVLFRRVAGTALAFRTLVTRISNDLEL
Description: Selectivity interaction (ActivX KiNativ screen (kinase selectivity in THP-1 cell lysates)) EUB0000639a MARK4. Type of test: subcellular. The following applies: lysate, at 0.01 µM.

For test [11], the target named is Casein kinase I isoform delta (Homo sapiens, UniProt P48730). Description: Selectivity interaction (KinomeScan (DiscoverX)) EUB0000229b CSNK1D. The following applies: at 10 µM.
For test [12], the target named is Casein kinase I isoform epsilon (Homo sapiens, UniProt P49674). Particulars: at 10 µM.
The target of test [13] is Mitogen-activated protein kinase kinase kinase kinase 5 (Homo sapiens) (UniProt Q9Y4K4). Description: Selectivity interaction (ActivX KiNativ screen (ex vivo kinase selectivity in human PBMCs)) EUB0001619a MAP4K5. The format is cell-based. The following applies: PBMC, at 1 µM.

Data on 10 compounds can be found in ChEMBL document CHEMBL5465560, “Selectivity Literature for EUbOPEN Chemogenomic Library” (2024).

Molecules are shown by their SMILES. Some results are limits rather than exact numbers.

Histone-lysine N-methyltransferase, H3 lysine-79 specific, sequence (Q8TEK3 whole entry, looked up): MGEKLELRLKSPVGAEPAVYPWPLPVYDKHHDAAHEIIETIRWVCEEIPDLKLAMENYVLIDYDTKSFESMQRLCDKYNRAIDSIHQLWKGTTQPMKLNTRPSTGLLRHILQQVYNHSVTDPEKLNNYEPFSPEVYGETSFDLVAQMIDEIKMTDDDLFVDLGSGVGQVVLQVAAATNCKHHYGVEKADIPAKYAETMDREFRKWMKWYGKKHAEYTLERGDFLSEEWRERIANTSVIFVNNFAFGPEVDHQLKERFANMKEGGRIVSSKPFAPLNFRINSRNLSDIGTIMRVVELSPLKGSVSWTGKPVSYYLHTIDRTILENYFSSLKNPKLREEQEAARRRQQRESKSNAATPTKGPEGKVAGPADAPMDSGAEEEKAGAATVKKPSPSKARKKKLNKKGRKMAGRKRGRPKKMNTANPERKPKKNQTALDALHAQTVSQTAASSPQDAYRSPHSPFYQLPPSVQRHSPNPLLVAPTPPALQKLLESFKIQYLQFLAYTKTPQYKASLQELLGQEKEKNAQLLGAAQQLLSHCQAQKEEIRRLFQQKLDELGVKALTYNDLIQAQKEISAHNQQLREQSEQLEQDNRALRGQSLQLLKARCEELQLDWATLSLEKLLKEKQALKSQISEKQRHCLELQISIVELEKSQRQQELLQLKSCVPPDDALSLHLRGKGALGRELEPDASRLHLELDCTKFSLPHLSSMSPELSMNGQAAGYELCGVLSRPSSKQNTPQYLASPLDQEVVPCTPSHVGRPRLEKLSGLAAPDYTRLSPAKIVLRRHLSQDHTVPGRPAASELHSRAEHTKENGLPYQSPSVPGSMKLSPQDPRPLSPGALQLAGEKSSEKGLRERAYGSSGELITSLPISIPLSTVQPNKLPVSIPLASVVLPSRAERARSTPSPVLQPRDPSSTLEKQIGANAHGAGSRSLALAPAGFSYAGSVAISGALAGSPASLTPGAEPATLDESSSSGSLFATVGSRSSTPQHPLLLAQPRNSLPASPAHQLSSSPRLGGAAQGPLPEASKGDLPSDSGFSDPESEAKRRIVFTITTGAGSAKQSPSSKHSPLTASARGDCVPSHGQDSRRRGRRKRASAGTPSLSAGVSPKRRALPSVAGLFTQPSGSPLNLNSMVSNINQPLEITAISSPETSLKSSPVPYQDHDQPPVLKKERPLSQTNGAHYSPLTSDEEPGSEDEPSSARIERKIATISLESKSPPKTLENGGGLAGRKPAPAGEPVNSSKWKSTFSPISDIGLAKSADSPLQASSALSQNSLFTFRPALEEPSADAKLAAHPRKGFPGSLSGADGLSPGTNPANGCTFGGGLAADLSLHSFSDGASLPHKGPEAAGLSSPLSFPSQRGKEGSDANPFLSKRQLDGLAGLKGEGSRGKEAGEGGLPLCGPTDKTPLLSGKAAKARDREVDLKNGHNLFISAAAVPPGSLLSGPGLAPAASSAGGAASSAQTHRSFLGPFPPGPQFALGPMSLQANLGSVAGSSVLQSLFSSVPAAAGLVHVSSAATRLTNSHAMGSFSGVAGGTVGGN
Focal adhesion kinase 1, sequence (Q05397 2-1052 limits assumed): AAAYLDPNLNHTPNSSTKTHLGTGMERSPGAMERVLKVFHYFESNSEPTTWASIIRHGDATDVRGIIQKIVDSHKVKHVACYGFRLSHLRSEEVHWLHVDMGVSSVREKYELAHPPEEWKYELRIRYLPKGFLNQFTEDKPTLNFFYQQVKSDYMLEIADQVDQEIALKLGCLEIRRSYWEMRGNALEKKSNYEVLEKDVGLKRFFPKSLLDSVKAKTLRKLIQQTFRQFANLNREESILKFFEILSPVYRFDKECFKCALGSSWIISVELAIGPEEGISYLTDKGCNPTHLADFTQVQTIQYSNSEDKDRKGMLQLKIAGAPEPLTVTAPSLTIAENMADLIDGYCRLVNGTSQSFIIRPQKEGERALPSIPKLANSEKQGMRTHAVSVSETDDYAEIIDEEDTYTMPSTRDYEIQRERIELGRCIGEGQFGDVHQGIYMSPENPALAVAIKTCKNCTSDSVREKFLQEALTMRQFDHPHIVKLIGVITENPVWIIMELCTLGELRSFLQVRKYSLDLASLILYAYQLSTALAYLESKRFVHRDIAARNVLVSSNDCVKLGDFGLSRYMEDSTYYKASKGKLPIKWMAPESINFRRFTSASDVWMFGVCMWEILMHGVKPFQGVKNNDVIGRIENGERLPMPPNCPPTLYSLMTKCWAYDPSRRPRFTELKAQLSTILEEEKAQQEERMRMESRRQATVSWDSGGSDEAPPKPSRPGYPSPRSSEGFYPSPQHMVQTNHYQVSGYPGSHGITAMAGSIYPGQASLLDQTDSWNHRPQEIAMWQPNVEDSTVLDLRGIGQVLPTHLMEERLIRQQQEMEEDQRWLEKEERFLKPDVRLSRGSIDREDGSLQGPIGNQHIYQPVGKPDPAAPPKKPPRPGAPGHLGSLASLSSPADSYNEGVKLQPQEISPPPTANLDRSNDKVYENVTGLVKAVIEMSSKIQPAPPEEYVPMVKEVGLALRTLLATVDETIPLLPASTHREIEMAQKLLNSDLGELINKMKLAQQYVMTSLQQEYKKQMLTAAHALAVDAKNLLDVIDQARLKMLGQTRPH
Ephrin type-A receptor 5 (Homo sapiens), sequence (P54756 whole entry): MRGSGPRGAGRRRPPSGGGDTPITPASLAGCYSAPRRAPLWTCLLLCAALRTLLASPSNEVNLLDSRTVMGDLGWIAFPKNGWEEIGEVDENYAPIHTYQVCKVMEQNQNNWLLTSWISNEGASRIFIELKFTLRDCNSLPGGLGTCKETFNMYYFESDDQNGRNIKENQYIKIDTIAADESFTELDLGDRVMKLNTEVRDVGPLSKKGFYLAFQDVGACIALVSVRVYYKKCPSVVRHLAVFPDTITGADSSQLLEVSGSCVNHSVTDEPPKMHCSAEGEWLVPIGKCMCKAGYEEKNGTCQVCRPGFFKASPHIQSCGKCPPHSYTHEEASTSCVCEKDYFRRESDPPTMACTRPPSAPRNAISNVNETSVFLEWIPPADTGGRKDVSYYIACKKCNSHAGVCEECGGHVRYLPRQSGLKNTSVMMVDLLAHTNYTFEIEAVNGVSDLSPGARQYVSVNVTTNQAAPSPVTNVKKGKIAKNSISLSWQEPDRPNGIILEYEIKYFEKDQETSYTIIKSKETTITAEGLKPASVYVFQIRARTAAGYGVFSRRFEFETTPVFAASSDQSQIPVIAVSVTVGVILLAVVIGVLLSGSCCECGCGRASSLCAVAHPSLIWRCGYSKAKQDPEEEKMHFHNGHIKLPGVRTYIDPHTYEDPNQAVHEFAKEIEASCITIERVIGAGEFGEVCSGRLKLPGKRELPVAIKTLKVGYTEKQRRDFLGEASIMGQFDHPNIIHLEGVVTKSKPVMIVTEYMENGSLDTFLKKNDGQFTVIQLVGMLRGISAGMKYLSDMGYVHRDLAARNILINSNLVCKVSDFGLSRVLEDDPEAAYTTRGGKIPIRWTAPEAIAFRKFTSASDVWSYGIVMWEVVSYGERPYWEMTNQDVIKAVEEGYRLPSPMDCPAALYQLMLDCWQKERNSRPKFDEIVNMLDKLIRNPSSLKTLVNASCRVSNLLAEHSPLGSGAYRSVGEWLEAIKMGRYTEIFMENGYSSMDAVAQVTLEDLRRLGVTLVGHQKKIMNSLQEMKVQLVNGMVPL
Casein kinase I isoform delta, sequence (P48730 whole entry, looked up, canonical isoform): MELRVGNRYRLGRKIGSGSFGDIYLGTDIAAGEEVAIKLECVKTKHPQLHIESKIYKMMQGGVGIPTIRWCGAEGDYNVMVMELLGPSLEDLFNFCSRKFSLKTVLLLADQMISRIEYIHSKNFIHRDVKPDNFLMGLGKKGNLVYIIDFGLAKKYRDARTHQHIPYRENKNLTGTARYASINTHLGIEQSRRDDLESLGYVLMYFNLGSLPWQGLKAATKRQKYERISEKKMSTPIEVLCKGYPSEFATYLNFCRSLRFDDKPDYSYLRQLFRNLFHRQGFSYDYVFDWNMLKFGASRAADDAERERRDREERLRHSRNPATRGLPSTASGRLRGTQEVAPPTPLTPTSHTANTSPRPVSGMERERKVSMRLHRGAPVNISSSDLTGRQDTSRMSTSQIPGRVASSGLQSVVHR
RAC-gamma serine/threonine-protein kinase, sequence (Q9Y243 whole entry): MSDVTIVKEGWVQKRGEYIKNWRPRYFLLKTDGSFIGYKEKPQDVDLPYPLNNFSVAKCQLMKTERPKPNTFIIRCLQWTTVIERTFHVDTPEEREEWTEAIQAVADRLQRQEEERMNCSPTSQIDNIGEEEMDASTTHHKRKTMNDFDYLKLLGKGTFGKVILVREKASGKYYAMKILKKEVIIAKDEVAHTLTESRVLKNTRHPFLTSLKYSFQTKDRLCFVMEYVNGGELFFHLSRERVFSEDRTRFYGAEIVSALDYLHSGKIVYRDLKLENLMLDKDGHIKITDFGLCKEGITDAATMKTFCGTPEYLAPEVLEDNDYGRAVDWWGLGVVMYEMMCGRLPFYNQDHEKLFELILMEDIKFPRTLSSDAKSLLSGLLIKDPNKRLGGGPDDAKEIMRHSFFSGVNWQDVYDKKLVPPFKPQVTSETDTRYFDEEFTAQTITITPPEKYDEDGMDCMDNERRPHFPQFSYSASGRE
Dual specificity mitogen-activated protein kinase kinase 1, sequence (Q02750 whole entry): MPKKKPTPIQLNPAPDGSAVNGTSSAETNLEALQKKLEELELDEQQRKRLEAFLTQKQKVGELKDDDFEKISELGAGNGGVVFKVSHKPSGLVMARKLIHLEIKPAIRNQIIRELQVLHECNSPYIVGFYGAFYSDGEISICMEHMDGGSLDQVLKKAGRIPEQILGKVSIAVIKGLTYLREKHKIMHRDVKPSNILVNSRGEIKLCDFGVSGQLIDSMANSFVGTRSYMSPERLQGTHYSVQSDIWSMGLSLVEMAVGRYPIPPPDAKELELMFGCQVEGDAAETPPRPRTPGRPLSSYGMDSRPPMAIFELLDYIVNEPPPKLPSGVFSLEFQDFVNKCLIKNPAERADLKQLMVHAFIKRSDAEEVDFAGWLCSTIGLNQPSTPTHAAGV

Take `CN(C)C/C=C/C(=O)Nc1ccc(C(=O)N2CCCC(Nc3ncc(Cl)c(-c4c[nH]c5ccccc45)n3)C2)cc1` (stereo not given): the % of control in test [1] was determined as 89%; in test [2] it was 88%. With `Nc1cnc(N2CCc3cc(S(=O)(=O)Nc4c(F)cc(Cl)cc4F)cc(N4CCCC4=O)c32)nc1` [TP-020n], the % of control was 100% in test [3] and 94% in test [4]. The compound `CC(=O)Nc1cccc(-n2c(=O)n(C3CC3)c(=O)c3c(Nc4ccc(I)cc4F)n(C)c(=O)c(C)c32)c1` gave a % of control in test [5] of 28%. With `COCCN1CCC(c2cc(CN(C)C(=O)c3cccc(Oc4ccccc4)c3)ccn2)CC1`, the % activity was over 95% in [6] (at 1 µM) and over 90% in test [6] (at 10 µM). In turn, `O=C(NOC[C@H](O)CO)c1ccc(F)c(F)c1Nc1ccc(I)cc1F` registered a % of control in [7] of 95%. On to `CNC(=O)Nc1ccc(-c2nc(N3CC4CCC(C3)O4)c3cnn(C4CCC5(CC4)OCCO5)c3n2)cc1`, for which the % of inhibition in [8] worked out at 2%. For the same compound, the % of control in [9] stood at 100%. In the case of `CC[C@@H]1[C@H](F)C(=O)N[C@@H]1COc1nccc2cc(C(N)=O)c(OC)cc12` [ZIMLOVISERTIB], the results for the % of inhibition (on Focal adhesion kinase 1; in [10]) were -38.6% and 9.6%, respectively. In test [11], `COc1cc(N(C)c2ccnc3ccc(C(F)(F)F)cc23)cc(OC)c1OC` registered a % binding of 69%. The compound `COCC(=O)NC/C=C/c1ccc2ncnc(Nc3ccc(Oc4ccc(C)nc4)c(C)c3)c2c1` [CP-724714] returned a % of control in test [12] of 100%. On to `N#Cc1cccc(-c2c[nH]c3ncnc(N4CCOCC4)c23)c1`, for which the % of inhibition in test [13] was 16%.
